The record followed here is US11691972B2, “Compounds for targeted degradation of BRD9” (C4 Therapeutics, Inc., priority 2020, dated 2023).

As a reminder, the DC50 is the concentration at which degradation of the target reaches its halfway point.

The target of the first experiment is T1, BRD9 (Homo sapiens, UniProt Q9H8M2).
T1 sequence (Q9H8M2 1-597): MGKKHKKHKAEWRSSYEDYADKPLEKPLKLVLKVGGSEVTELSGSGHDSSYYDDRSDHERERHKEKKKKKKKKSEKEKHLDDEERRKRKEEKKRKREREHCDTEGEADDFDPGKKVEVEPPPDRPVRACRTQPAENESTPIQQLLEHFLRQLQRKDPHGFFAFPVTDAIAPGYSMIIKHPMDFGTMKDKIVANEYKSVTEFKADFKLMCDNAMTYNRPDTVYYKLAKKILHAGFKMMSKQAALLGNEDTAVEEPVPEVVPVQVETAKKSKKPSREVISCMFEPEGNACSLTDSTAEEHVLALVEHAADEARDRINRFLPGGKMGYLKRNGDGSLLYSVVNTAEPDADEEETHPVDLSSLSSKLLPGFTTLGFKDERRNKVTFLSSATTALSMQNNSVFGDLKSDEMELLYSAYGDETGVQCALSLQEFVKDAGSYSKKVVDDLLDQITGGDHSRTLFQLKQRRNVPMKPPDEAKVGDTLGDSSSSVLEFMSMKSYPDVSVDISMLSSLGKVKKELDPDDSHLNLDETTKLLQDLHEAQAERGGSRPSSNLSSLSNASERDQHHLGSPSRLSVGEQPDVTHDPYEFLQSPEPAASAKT
Put plainly: HiBiT BRD9 degradation assay in 293T.166 (BRD9-HiBiT) cells. It is filed as cell-based. Also noted: endogenously expressing BRD9 with HiBiT fusion tag via CRISPR; host or cells: 293T.166 (BRD9-HiBiT), also expressing LgBiT ectopically. The conditions noted are these: Table 1; 293T.166 cells, 2.0 hours; class symbols; read-out: HiBiT-Degradation 293T.166 BRD9 2.0 hours (DC50). The method, boiled down: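 293T.166 cells carrying endogenous CRISPR BRD9-HiBiT and expressing LgBiT treated 2 h at 37° C. with compounds, 11-point half-log titration from 10 μM in duplicate. Remaining BRD9 measured as lytic HiBiT luminescence; untreated cells as negative control, no-reagent wells as positive control.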
(In general: The HiBiT peptide binds its large partner to form an active luciferase.)
Consider `COc1cc(-c2cn(C)c(=O)c(C)c2C)cc(Cl)c1CN1CCC(C2CCN(c3ccc(NC4CCC(=O)NC4=O)cc3Cl)CC2)CC1` (stereo not drawn) [Compound 76], for which the DC50 was < 100 nM.

With `COc1cc(-c2cn(C)c(=O)c3[nH]ncc23)cc(Cl)c1C(=O)N1CCC(C2CCN(c3ccc(NC4CCC(=O)NC4=O)cc3F)CC2)CC1` (stereo not drawn) [Compound 216], the DC50 was < 100 nM.

Consider `COc1cc(-c2cn(C)c(=O)c(C)c2C)cc(OC)c1CN1C2CCC1CN(C(=O)CC1CCN(c3ccc(NC4CCC(=O)NC4=O)cc3C(F)(F)F)CC1)C2` (stereo not drawn) [Compound 63, 3-[4-[4-[2-[8-[[2,6-dimethoxy-4-(1,4,5-trimethyl-6-oxo-3-pyridyl)phenyl]methyl]-3,8-diazabicyclo[3.2.1]octan-3-yl]-2-oxo-ethyl]-1-piperidyl]-3-(trifluoromethyl)anilino]piperidine-2,6-dione], for which the DC50 was < 100 nM.

For the molecule `COc1cc(-c2cn(C)c(=O)c3[nH]ncc23)cc(OC)c1CN1CCn2c(CN3CCC(c4ccc(NC5CCC(=O)NC5=O)cc4)CC3)ccc2C1` (stereo not drawn) [Compound 102], the DC50 was < 100 nM.

For the molecule `COc1cc(-c2cn(C)c(=O)c3[nH]ncc23)cc(Cl)c1C(=O)N1CCc2c(CC3CCN(c4ccc(NC5CCC(=O)NC5=O)cc4F)CC3)ccc(F)c2C1` (stereo not drawn) [Compound 240], the DC50 is < 100 nM.

Turning to `COc1cc(-c2cn(C)c(=O)c3[nH]ncc23)cc(F)c1CN1CCN(C(=O)CC2CCN(c3ccc(NC4CCC(=O)NC4=O)cc3)CC2)CC1` (stereo not drawn) [Compound 49, 3-[4-[4-[2-[4-[[2-fluoro-6-methoxy-4-(6-methyl-7-oxo-1H-pyrazolo[3,4-c]pyridin-4-yl)phenyl]methyl]piperazin-1-yl]-2-oxo-ethyl]-1-piperidyl]anilino]piperidine-2,6-dione], the DC50 was < 100 nM.

For the molecule `COc1cc(-c2cn(C)c(=O)c3cnccc23)cc(Cl)c1C(=O)N1CCC(N(C)C(=O)N2CCC(c3ccc(NC4CCC(=O)NC4=O)cc3)CC2)CC1` (stereo not drawn) [Compound 126, N-[1-[2-chloro-6-methoxy-4-(2-methyl-1-oxo-2,7-naphthyridin-4-yl)benzoyl]-4-piperidyl]-4-[4-[(2,6-dioxo-3-piperidyl)amino]phenyl]-N-methyl-piperidine-1-carboxamide], the DC50 is < 100 nM.

Take `COc1cc(-c2cn(C)c(=O)c3cnccc23)cc(Cl)c1C(=O)N1CCC(CCC2CCN(c3ccc(NC4CCC(=O)NC4=O)cc3C(F)(F)F)CC2)CC1` (stereo not drawn) [Compound 242]: the DC50 was < 100 nM.

Turning to `COc1cc(-c2cn(C)c(=O)c3[nH]ncc23)cc(Cl)c1CN1CCC(N(C)C(=O)N2CCC(c3ccc(OC4CCC(=O)NC4=O)cc3)CC2)CC1` (stereo not drawn) [Compound 120], the DC50 is < 100 nM.

For `COc1cc(-c2cn(C)c(=O)c3cnccc23)cc(Cl)c1CN1CCC(N2CCN(c3ccc(NC4CCC(=O)NC4=O)nc3)CC2)C(F)(F)C1` (stereo not drawn) [Compound 194], the DC50 is < 100 nM.

Turning to `COc1cc(-c2cn(C)c(=O)c3[nH]ncc23)cc(OC)c1CC1CCN(CCN2CCC(c3ccc(NC4CCC(=O)NC4=O)cc3)CC2)CC1` (stereo not drawn) [Compound 168, 3-[4-[1-[2-[4-[[2,6-dimethoxy-4-(6-methyl-7-oxo-1H-pyrazolo[3,4-c]pyridin-4-yl)phenyl]methyl]-1-piperidyl]ethyl]-4-piperidyl]anilino]piperidine-2,6-dione], the DC50 is < 100 nM.

Consider `Cn1cc(-c2ccc(CN3CCN(C(=O)CC4CCN(c5ccc(NC6CCC(=O)NC6=O)cc5)CC4)CC3)c(OC(F)(F)F)c2)c2cn[nH]c2c1=O` (stereo not drawn) [Compound 51], for which the DC50 is < 100 nM.

Take `COc1cc(-c2cn(C)c(=O)c(C)c2C)cc(Cl)c1CN1CCC(N2CCN(c3ccc(NC4CCC(=O)NC4=O)nc3)CC2)C(F)(F)C1` (stereo not drawn) [Compound 196]: the DC50 is < 100 nM.

Regarding `CN(C(=O)N1CCC(c2ccc(NC3CCC(=O)NC3=O)cc2)CC1)C1CCN(C(=O)c2ccc(-c3cn(C)c(=O)c4ccc(F)cc34)cc2OC(F)(F)F)CC1` (stereo not drawn) [Compound 128], the DC50 was < 100 nM.

Consider `COc1cc(-c2cn(C)c(=O)c(C)c2C)cc(OC)c1CN1CCC(N2CCN(c3ccc(NC4CCC(=O)NC4=O)cc3F)CC2)C(F)(F)C1` (single isomer, unassigned) [Compound 175, 3-[4-[4-[1-[[2,6-dimethoxy-4-(1,4,5-trimethyl-6-oxo-3-pyridyl)phenyl]methyl]-3,3-difluoro-4-piperidyl]piperazin-1-yl]-3-fluoro-anilino]piperidine-2,6-dione], for which the DC50 is < 100 nM.

Turning to `COc1cc(-c2cn(C)c(=O)c3[nH]ncc23)cc(F)c1CN1CCN(C(=O)CN2CCC(c3ccc(NC4CCC(=O)NC4=O)cc3Cl)CC2)CC1` (stereo not drawn) [Compound 24], the DC50 was < 100 nM.

As to `COc1cc(-c2cn(C)c(=O)c3[nH]ncc23)cc(Cl)c1CN1CCc2c(CC3CCN(c4ccc(NC5CCC(=O)NC5=O)cc4F)CC3)cccc2C1` (stereo not drawn) [Compound 105, 3-[4-[4-[[2-[[2-chloro-6-methoxy-4-(6-methyl-7-oxo-1H-pyrazolo[3,4-c]pyridin-4-yl)phenyl]methyl]-3,4-dihydro-1H-isoquinolin-5-yl]methyl]-1-piperidyl]-3-fluoro-anilino]piperidine-2,6-dione], the DC50 is < 100 nM.

Turning to `COc1cc(-c2cn(C)c(=O)c3[nH]ncc23)cc(Cl)c1CN1CCC(C2CCN(c3ccc(NC4CCC(=O)NC4=O)cc3)CC2)CC1` (stereo not drawn) [Compound 71], the DC50 is < 100 nM.

On to `COc1cc(-c2cn(C)c(=O)c3cnccc23)cc(Cl)c1CN1CCC(N2CCC(c3ccc(NC4CCC(=O)NC4=O)cc3F)CC2)C(F)(F)C1` (stereo not drawn) [Compound 201], for which the DC50 was < 100 nM.

Consider `COc1cc(-c2cn(C)c(=O)c3cnccc23)cc(OC)c1CN1CCc2c(CN3CCC(c4ccc(NC5CCC(=O)NC5=O)cc4)CC3)cccc2C1` (stereo not drawn) [Compound 96], for which the DC50 was < 100 nM.

Turning to `COc1cc(-c2cn(C)c(=O)c3[nH]ncc23)cc(OC)c1Cc1ccc(CC(=O)N2CCC(c3ccc(NC4CCC(=O)NC4=O)cc3)CC2)cc1` (stereo not drawn) [Compound 207, 3-[4-[1-[2-[4-[[2,6-dimethoxy-4-(6-methyl-7-oxo-1H-pyrazolo[3,4-c]pyridin-4-yl)phenyl]methyl]phenyl]acetyl]-4-piperidyl]anilino]piperidine-2,6-dione], the DC50 is < 100 nM.

With `COc1cc(-c2cn(C)c(=O)c3[nH]ncc23)cc(F)c1CN1CCC(C2CCN(c3ccc(NC4CCC(=O)NC4=O)cc3C(F)(F)F)CC2)CC1` (stereo not drawn) [Compound 84], the DC50 was < 100 nM.

Regarding `COc1cc(-c2cn(C)c(=O)c3[nH]ncc23)cc(OC)c1CN1CCN(C(=O)CC2CCN(c3ccc(NC4CCC(=O)NC4=O)cc3C(F)(F)F)CC2)C(C)(C)C1` (stereo not drawn) [Compound 57], the DC50 was < 100 nM.

`COc1cc(-c2cn(C)c(=O)c3cnccc23)cc(Cl)c1CN1CCC(C2CCN(c3ccc(NC4CCC(=O)NC4=O)cc3F)CC2)CC1` (stereo not drawn) [Compound 78]: the DC50 is < 100 nM.

For the molecule `COc1cc(-c2cn(C)c(=O)c3[nH]ncc23)cc(OC)c1CN1CCN(C(=O)CC2(O)CCN(c3ccc(NC4CCC(=O)NC4=O)cc3C(F)(F)F)CC2)CC1` (stereo not drawn) [Compound 68, 3-[4-[4-[2-[4-[[2,6-dimethoxy-4-(6-methyl-7-oxo-1H-pyrazolo[3,4-c]pyridin-4-yl)phenyl]methyl]piperazin-1-yl]-2-oxo-ethyl]-4-hydroxy-1-piperidyl]-3-(trifluoromethyl)anilino]piperidine-2,6-dione], the DC50 was < 100 nM.

For `COc1cc(-c2cn(C)c(=O)c3cnccc23)cc(Cl)c1CN1CCC(C2CCN(c3ccc(NC4CCC(=O)NC4=O)cc3F)CC2)C(F)(F)C1` (stereo not drawn) [Compound 199], the DC50 is < 100 nM.

Take `COc1cc(-c2cn(C)c(=O)c3[nH]ncc23)cc(OC)c1CN1CCc2cc(N3CCC(c4ccc(NC5CCC(=O)NC5=O)cc4)CC3)ccc2C1` (stereo not drawn) [Compound 206, 3-[4-[1-[2-[[2,6-dimethoxy-4-(6-methyl-7-oxo-1H-pyrazolo[3,4-c]pyridin-4-yl)phenyl]methyl]-3,4-dihydro-1H-isoquinolin-6-yl]-4-piperidyl]anilino]piperidine-2,6-dione]: the DC50 was < 100 nM.

`COc1cc(-c2cn(C)c(=O)c3cnccc23)cc(Cl)c1C(=O)N1CCc2c(CN3CCC(c4ccc(NC5CCC(=O)NC5=O)cc4)C(F)(F)C3)cccc2C1` (stereo not drawn) [Compound 236]: the DC50 was < 100 nM.

For `COc1cc(-c2cn(C)c(=O)c(C)c2C)cc(OC)c1CN1CCC(C2CCN(c3ccc(NC4CCC(=O)NC4=O)cc3F)CC2)C(F)(F)C1` (stereo not drawn) [Compound 198], the DC50 was < 100 nM.

The same experiment, now with this note: Table 2; 293T.166 cells, 2.0 hours; class symbols; read-out: HiBiT-Degradation 293T.166 BRD9 2.0 hours (DC50).
Consider `Cn1cc(-c2ccc(CN3CCC(N4CCN(c5ccc(NC6CCC(=O)NC6=O)nc5)CC4)C(F)(F)C3)c(OC(F)(F)F)c2)c2ccncc2c1=O` (stereo not drawn) [Compound 253, 3-[[5-[4-[3,3-difluoro-1-[[4-(2-methyl-1-oxo-2,7-naphthyridin-4-yl)-2-(trifluoromethoxy)phenyl]methyl]-4-piperidyl]piperazin-1-yl]-2-pyridyl]amino]piperidine-2,6-dione], for which the DC50 was < 100 nM.
